pIC50: −log10 of the molar value.

The source of these data is patent US20250145631A1, “HETEROCYCLIC COMPOUND ACTING ON G12D MUTANT KRAS PROTEIN” (Astellas Pharma Inc., priority 2022, published 2025).

Assay type in all cases: cell-based
One assay deals with T1, KRAS G12D (Homo sapiens, UniProt P01116, G12D).
T1 construct: host or cells: AsPC-1 (human pancreatic cancer line)
Kind of assay: KRAS degradation activity by Cell ELISA in AsPC-1 cells (Test Example 1). Particulars: for Dmax: ASPC1, overnight treatment, read-out: Dmax (degradation rate at the concentration showing highest degradation); for Dmax / DC50: Cell ELISA; for DC50: overnight treatment, read-out: DC50 (50% degradation concentration of KRAS). As to the method: The KRAS degradation activity of test compounds was evaluated by measuring the expression levels of KRAS G12D by Cell ELISA.
AsPC-1 cells were seeded at 20 μL per well on 384-well plates (from Greiner bio-one) to give 2.0×10^4 cells per well. As for the cell culture conditions, RPMI 1640 (from Sigma-Aldrich) medium containing 10% fetal bovine serum (from Cytiva) was used in the presence of 5% CO2 at 37° C.
The next day, the test compounds (10 points having final concentrations in the range of 10 μM to 0.3 nM) and DMSO (from FUJIFILM Wako Pure Chemical Corporation), which was the solvent for the test compounds, as a negative control were diluted 500-fold with a fresh medium and were added at 20 μL per well. The cells were cultured overnight. The next day, the culture supernatant was removed, and 4% paraformaldehyde phosphate buffer (from FUJIFILM Wako Pure Chemical Corporation) was added at 20 μL per well. The plates were allowed to stand for 30 minutes at room temperature to thus immobilize the cells. Then, the supernatant was removed, and 0.1% Triton X-100 (from Amersham Biosciences)-containing Phosphate buffered saline (PBS; from FUJIFILM Wako Pure Chemical Corporation) was added at 20 μL per well. After allowing to stand for 10 minutes at room temperature, the supernatant was removed. PBS was added at 25 μL per well, and the supernatant was removed to thus wash each well. The washing was performed twice in total. Next, the supernatant was removed, and 0.5% sodium dodecyl sulfate (SDS; from Invitrogen)-containing PBS was added at 20 μL per well. After allowing to stand at room temperature for 10 minutes, the supernatant was removed by a centrifugal operation (using a centrifugal dehydrator machine, the supernatant was removed by the same method hereinafter). PBS was added at 25 μL per well, and the supernatant was removed to thus wash each well. The washing was performed twice in total. The supernatant was removed, and blocking solution (Intercept Blocking Buffer; from Li—COR Biosciences) was added at 20 μL per well. After allowing to stand for 30 minutes at room temperature, the supernatant was removed, and a solution obtained by diluting anti-β-actin antibody (Anti-beta Actin antibody [mAbcam 8226]-Loading Control; from abcam) 1,000-fold with blocking solution and a solution obtained by diluting anti-Ras (G12D Mutant Specific) antibody (Ras (G12D Mutant Specific) (D8H7) Rabbit mAb #14429; from Cell Signaling Technology) and anti-β-actin antibody (from abcam) 1,000-fold with blocking solution were respectively added to positive control wells and the other wells at 15 μL per well as a primary antibody. The plates were allowed to stand overnight at 4° C.
The next day, the supernatant was removed. PBS was added at 25 μL per well, and the supernatant was removed to thus wash each well. The washing was performed twice in total. The supernatant was removed, and a solution obtained by diluting Donkey anti-Mouse IgG H&L (IRDye 680RD) (from Li—COR Biosciences) and Goat anti-Rabbit IgG H&L (IRDye 800CW) (from Li—COR Biosciences) 1,000-fold with blocking solution was added at 15 μL per well as a secondary antibody. A solution obtained by diluting Donkey anti-Mouse IgG H&L (IRDye 680RD) (from Li—COR Biosciences) 1,000-fold with blocking solution was added to a positive control well as a secondary antibody. After allowing to stand for 1 hour at room temperature, the supernatant was removed. PBS was added at […], and the supernatant was removed to thus wash each well. The washing was performed twice in total. After removing the supernatant, the plates were dried with air at room temperature for 2 hours or more, and the 700 nm and 800 nm fluorescent signals were measured with Aerius (from Li—COR Biosciences). […]

For assay [1], the system named is human G12D mutant KRAS-positive pancreatic cancer line AsPC-1. Nature of the assay: Non-anchorage-dependent cell growth inhibitory effect, spheroid 3D culture (Test Example 3). The following applies: ASPC1, 144 h, AsPC-1 spheroid 3D culture, 6 days; for pIC50: CellTiter Glo 2.0, read-out: IC50 (non-anchorage-dependent cell growth inhibition). As to the method:
The non-anchorage-dependent cell growth inhibitory effect of test compounds was evaluated by spheroid 3D cell culture.
AsPC-1 cells were seeded on low-cell-adhesive round bottom 384-well plates (PrimeSurface: from Sumitomo Bakelite) at 20 μL (or […])/well to give 5×10^2 cells per well. As for the cell culture conditions, RPMI 1640 medium containing 10% fetal bovine serum was used in the presence of 5% CO2 at 37° C.
The next day, the test compounds (10 points or 6 points having final concentrations in the range of 10 μM to 0.3 nM) and DMSO, which was the solvent for the test compounds, as a negative control were diluted 500-fold (or 100-fold) with a fresh medium and were added at 20 μL (or […]) per well. After culturing in the presence of 5% C02 at 37° C. for 6 days, CellTiter Glo 2.0 (from Promega) was added at 20 μL per well. After stirring with a plate mixer (from FINEPCR) at normal temperature for 1 hour, the luminescent signals were measured with ARVO X3 (from PerkinElmer).
With the signaling value in treatment with DMSO taken as 100% and with the signaling value in the medium alone without cells taken as 0%, the 50% inhibitory concentration values (IC50) were calculated by Sigmoid-Emax nonlinear regression analysis. The calculated 50% inhibition represents the inhibition at the highest concentration evaluated (10 μM) for a compound that exceeds the concentration in the evaluation range.
(§1) In the tables presented below, Ex represents Example No. The IC50 of Ex. 13, Ex. 15, and Ex. 16 were calculated using the molecular weights as tetrahydrochloride, and the IC50 of Ex. 14 was calculated using the molecular weight as trihydrochloride.

Assay [2] relates to phosphorylation of ERK (Thr202/Tyr204). Nature of the assay: ERK phosphorylation inhibitory effect by Cell ELISA in AsPC-1 cells (Test Example 2). Particulars: Homo sapiens; for pIC50: ASPC1, overnight treatment, Cell ELISA, read-out: IC50 (ERK phosphorylation inhibition). The procedure: The ERK phosphorylation inhibitory effect of test compounds was evaluated by measuring phosphorylation of threonine 202 (Thr202) and tyrosine 204 (Tyr204) of ERK located downstream of the KRAS signal by Cell ELISA.
AsPC-1 cells were seeded on 384-well plates at 20 µL/well to give 2.0×10^4 cells per well. As for the cell culture conditions, RPMI 1640 medium containing 10% fetal bovine serum was used in the presence of 5% CO2 at 37° C.
The next day, the test compounds (10 points having final concentrations in the range of 10 μM to 0.3 nM), trametinib (MEK inhibitor) of a final concentration of […] as positive control and DMSO, which was the solvent for the test compounds, as negative control were diluted 500-fold with a fresh medium and were added at 20 μL per well. The cells were cultured overnight. After culturing, 30% glyoxal solution (40% glyoxal [from Nacalai Tesque]was diluted with PBS) was quickly added at 30 μL per well, and the plates were allowed to stand for 120 minutes at room temperature to thus immobilize the cells. Then, the plates were centrifuged to remove the supernatant (using a centrifugal dehydrator machine, the supernatant was removed by the same method hereinafter), and 0.10% Triton X-100-containing PBS was added at 20 μL per well. After allowing to stand for 10 minutes at room temperature, the supernatant was removed, and the same operation was further repeated. Next, 0.5% SDS-containing PBS was added at 20 μL per well, and after allowing to stand at room temperature for 30 minutes, the supernatant was removed. Subsequently, blocking solution (Intercept Blocking Buffer) was added at 20 μL per well, and the plates were allowed to stand for 1 hour at room temperature. The supernatant was removed, and an ERK (Thr202/Tyr204) phosphorylation antibody (Phospho-p44/42 MAPK (Erk 1/2) (Thr202/Tyr204) (D13.14.4E) XP Rabbit mAb; from Cell Signaling Technology) diluted 2,500-fold with blocking solution was added at 15 μL per well as a primary antibody. The plates were allowed to stand at 4° C. overnight.
The next day, the supernatant was removed. 0.05% Tween-20 (from Thermo Fisher Scientific)-containing PBS was added at 50 μL per well, and the supernatant was removed to thus wash each well. The washing was performed three times in total. After washing, Goat anti-Rabbit IgG H&L (IRDye 800CW) diluted 1,000-fold with blocking solution was added at 15 μL per well as a secondary antibody, and the plates were allowed to stand for 1 hour at room temperature. The supernatant was removed, and each well was washed three times with 0.05% Tween-20-containing PBS in the same manner as after the primary antibody reaction. After removing the supernatant, the plates were dried with air at room temperature for 3 hours or more, and the 800-nm fluorescent signals were measured with Aerius.
With the signaling value at the time of addition of DMSO taken as 100% and with the signaling value at the time of addition of […] trametinib taken as 0%, the 50% inhibitory concentration values (IC50) were calculated by Sigmoid-Emax nonlinear regression analysis. The calculated 50% inhibition represents the inhibition at the highest concentration evaluated (10 μM) for a compound that exceeds the concentration in the evaluation range.
as §1

T1 sequence (P01116 1-188 isoform P01116-2 G12D): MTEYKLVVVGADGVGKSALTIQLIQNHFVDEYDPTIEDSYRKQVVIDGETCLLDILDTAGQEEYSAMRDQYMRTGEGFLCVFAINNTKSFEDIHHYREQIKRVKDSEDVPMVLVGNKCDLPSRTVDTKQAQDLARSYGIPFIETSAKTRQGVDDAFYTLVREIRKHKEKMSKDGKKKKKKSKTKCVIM

With `Cc1c(F)cc2[nH]ncc2c1-c1c(C2CC2)cc2c(N3C[C@@H]4C[C@H]3CN4)nc(OC3CCOCC3)nc2c1OCc1ccc(C(=O)N2C[C@H]3C[C@@H]2CN3Cc2ccc3c(c2)C(=O)N(C2CCC(=O)NC2=O)C3=O)cc1` (some centres unmarked) [Example 4], the Dmax on KRAS G12D worked out at 40%. The “degradation rate at the highest concentration evaluated (printed in DC50 column)” value on KRAS G12D (at 10 μM) amounted to 40% at 10 μM. The inhibition at 10 µM came to 22% in assay [1] (at 10 μM, read-out: cell growth inhibition at the highest concentration evaluated) and 33% in assay [2] (ASPC1, at 10 μM, read-out: ERK phosphorylation inhibition at the highest concentration evaluated).
For `CO[C@@H](C)COc1nc(O[C@H]2CCNC2)c2cc(C3CC3)c(-c3c(C)c(F)cc4[nH]ncc34)c(OCc3ccc(C(=O)N4CCN(Cc5ccc6c(c5)n(C)c(=O)n6C5CCC(=O)NC5=O)C[C@@H]4C)cc3)c2n1` (some centres unmarked) [Example 43], at KRAS G12D, the Dmax came to 90% and the DC50 was found to be 9 nM. The pIC50 in assay [1] was 7.48. For the same compound, in assay [2], the pIC50 is 7.89.
Taken in the same sequence, the figures for `Cc1c(F)cc2[nH]ncc2c1-c1c(C2CC2)cc2c(N3C[C@@H]4C[C@H]3CN4)nc(OC3CCOCC3)nc2c1OCc1ccc(C(=O)N2CCN(Cc3ccc4c(N5CCC(=O)NC5=O)nn(C)c4n3)C[C@@H]2C)cc1` (atropisomer, axis not shown) [Example 24] were 78%, 297 nM, 6.65 and 6.64.
Taken in the same sequence, the figures for `Cc1c(F)cc2[nH]ncc2c1-c1c(C2CC2)cc2c(N3C[C@@H]4C[C@H]3CN4)nc(OC3CCOCC3)nc2c1OCc1ccc(C(=O)N2CCN(Cc3ccc4c(n3)n(C)c(=O)n4C3CCC(=O)NC3=O)CC2)cc1` (some centres unmarked) [Example 11] were 84%, 58 nM, 6.85 and 7.23.
Take `CO[C@@H](C)COc1nc(N(C)[C@H]2CCNC2)c2cc(C3CC3)c(-c3c(C)c(F)cc4[nH]ncc34)c(OCc3ccc(C(=O)N4CCN(Cc5ccc6c(c5)n(C)c(=O)n6C5CCC(=O)NC5=O)C[C@@H]4C)cc3)c2n1` (some centres unmarked) [Example 18]: at KRAS G12D, the Dmax was 77% and the DC50 was 85 nM. Also, in assay [1], the pIC50 was 6.66. Also, the pIC50 in assay [2] was 6.60.
For the compound `Cc1c(F)cc2[nH]ncc2c1-c1c(C2CC2)cc2c(N3C[C@@H]4C[C@H]3CN4)nc(OC3CCOCC3)nc2c1OCc1ccc(C(=O)N2C3CCC2CN(Cc2ccc4c(c2)C(=O)N(C2CCC(=O)NC2=O)C4=O)C3)cc1` (stereo partly drawn) [Example 5, 5-[(8-{4-[({(7M)-6-cyclopropyl-4-[(1S,4S)-2,5-diazabicyclo[2.2.1]heptan-2-yl]-7-(6-fluoro-5-methyl-1H-indazol-4-yl)-2-[(oxan-4-yl)oxy]quinazolin-8-yl}oxy)methyl]benzoyl}-3,8-diazabicyclo[3.2.1]octan-3-yl)methyl]-2-(2,6-dioxopiperidin-3-yl)-1H-isoindole-1,3(2H)-dione], at KRAS G12D, the Dmax turned out to be 84% and the DC50 worked out at 308 nM. Also, in assay [1], the pIC50 was 6.31. Moreover, the pIC50 in assay [2] was 6.48.
On the same counts, the results for `Cc1c(N2CCC(=O)NC2=O)ccnc1OC1CCN(C(=O)c2ccc(COc3c(-c4c(C)c(F)cc5[nH]ncc45)c(C4CC4)cc4c(N5C[C@@H]6C[C@H]5CN6)nc(OC5CCOCC5)nc34)cc2)CC1` (atropisomer, axis not shown) [Example 21] are 52%, 4960 nM, 6.07 and 5.64.
On the same counts, the results for `CC[C@H]1CN(Cc2ccc3c(N4CCC(=O)NC4=O)nn(C)c3c2)CCN1C(=O)c1ccc(COc2c(-c3c(C)c(F)cc4[nH]ncc34)c(C3CC3)cc3c(N4C[C@@H]5C[C@H]4CN5)nc(OC4CCOCC4)nc23)cc1` (atropisomer, axis not shown) [Example 25] are 70%, 856 nM, 6.34 and 6.18.
